In ChEMBL document CHEMBL5154942, “Discovery of Clinical Candidate NTQ1062 as a Potent and Bioavailable Akt Inhibitor for the Treatment of Human Tumors” (J Med Chem, 2022):
pIC50: −log10 of the molar value. Activity calls are given as the source filed them. The calls are words filed in the database; no cut-off is given here.

Tests used:
Cytochrome P450 3A4 = Cytochrome P450 3A4 (Homo sapiens, UniProt P08684); experiment: Inhibition of CYP3A4 in human liver microsomes at 0.01 to 30 uM […] in presence of NADPH by UPLC-MS/MS analysis; format: ADME, Microsome
Chain of Cytochrome P450 3A4 (P08684 whole entry): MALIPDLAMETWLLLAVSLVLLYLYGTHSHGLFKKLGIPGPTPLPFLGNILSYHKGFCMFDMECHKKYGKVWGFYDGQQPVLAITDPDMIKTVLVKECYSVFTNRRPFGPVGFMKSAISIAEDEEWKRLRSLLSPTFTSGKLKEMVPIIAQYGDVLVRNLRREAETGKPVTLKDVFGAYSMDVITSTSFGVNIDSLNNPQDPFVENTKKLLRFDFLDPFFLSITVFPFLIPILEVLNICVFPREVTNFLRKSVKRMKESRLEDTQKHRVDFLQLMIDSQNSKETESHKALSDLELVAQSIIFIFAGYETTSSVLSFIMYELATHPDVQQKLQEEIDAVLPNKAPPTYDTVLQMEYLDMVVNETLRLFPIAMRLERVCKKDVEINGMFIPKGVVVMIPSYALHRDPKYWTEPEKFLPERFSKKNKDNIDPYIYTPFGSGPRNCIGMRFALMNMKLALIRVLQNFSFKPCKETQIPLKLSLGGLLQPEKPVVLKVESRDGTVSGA

[1] = Bioavailability in Sprague-Dawley rat at 10 mg/kg, ig by UPLC-MS/MS analysis; format: ADME, organism-based; details: in vivo, po
Cytochrome P450 2C9 = Cytochrome P450 2C9 (Homo sapiens, UniProt P11712); experiment: Inhibition of CYP2C9 in human liver microsomes at 0.01 to 30 uM using diclofenac as substrate in presence of NADPH by UPLC-MS/MS analysis; format: ADME, Microsome
Chain of Cytochrome P450 2C9 (P11712 whole entry): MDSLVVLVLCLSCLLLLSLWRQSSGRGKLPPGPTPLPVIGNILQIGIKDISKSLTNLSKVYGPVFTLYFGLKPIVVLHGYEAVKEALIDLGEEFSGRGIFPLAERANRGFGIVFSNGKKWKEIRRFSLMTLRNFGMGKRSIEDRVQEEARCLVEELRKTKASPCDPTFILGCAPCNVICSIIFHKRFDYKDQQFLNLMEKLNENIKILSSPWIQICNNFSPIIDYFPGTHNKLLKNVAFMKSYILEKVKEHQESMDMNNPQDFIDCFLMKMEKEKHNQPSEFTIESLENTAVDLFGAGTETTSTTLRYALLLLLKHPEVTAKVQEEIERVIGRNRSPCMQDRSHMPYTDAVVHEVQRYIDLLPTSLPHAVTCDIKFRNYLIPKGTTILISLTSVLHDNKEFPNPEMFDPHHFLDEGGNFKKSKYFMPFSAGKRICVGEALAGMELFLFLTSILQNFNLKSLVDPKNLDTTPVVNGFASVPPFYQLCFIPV

LNCaP [2] = experiment: Induction of apoptosis in human LNCaP cells assessed as late apoptotic cells at […] incubated for 72 hrs by annexin V/PI double staining based flow cytometry method (reference value: 2.75 %); format: functional
LNCaP [3] = experiment: In vivo inhibition of AKT in human LNCaP cells xenografted in NCG mouse assessed as reduction in PRAS40 phosphorylation at 50 mg/kg administered for 21 days and measured after 4 hrs post last dose by Western blot analysis; format: functional, organism-based; details: time 21.0 day
[4] = Cmax in NCG mouse xenografted with human LNCaP cells at 12.5 mg/kg administered once daily for 18 to 21 days and measured upto 10 hrs post last dose by LC-MS/MS analysis; format: ADME, organism-based; details: in vivo
[5] = Bioavailability in crab-eating monkey at 6 mg/kg, ig by UPLC-MS/MS analysis; format: ADME, organism-based, Macaca fascicularis; details: cynomolgus monkey, in vivo, po
LNCaP [6] = experiment: Induction of apoptosis in human LNCaP cells assessed as early apoptotic cells at 1.25 uM incubated for 72 hrs by annexin V/PI double staining based flow cytometry method (reference value: […]); format: functional
LNCaP [7] = experiment: In vivo antitumor activity against human LNCap cells xenografted in NCG mouse assessed as tumor growth inhibition at 50 mg/kg administered once daily for 18 to 21 days relative to control; format: functional; details: time 18-21 day, read-out: TGI
[8] = Metabolic stability in Sprague-Dawley rat liver microsomes assessed as parent compound remaining at 1 uM measured after 60 mins by UPLC-MS/MS analysis; format: ADME, Microsome; details: read-out: Stability
[9] = Metabolic stability in human liver microsomes assessed hepatic clearance at 1 uM measured after 60 mins by LC-MS/MS analysis; format: ADME, Microsome; details: 1 h
LNCaP [10] = experiment: Induction of cell cycle arrest in human LNCap cells assessed as accumulation at G0/G1 phase at 0.2 uM incubated for 24 hrs by flow cytometry (reference value: 58.60 %); format: functional
[11] = AUC (0 to t) in NCG mouse xenografted with human LNCaP cells at 25 mg/kg administered daily once for 18 to 21 days and measured upto 10 hrs post last dose by LC-MS/MS analysis; format: ADME, organism-based; parameters: time 18-21 day, dose 25 mg/kg; details: in vivo
[12] = Metabolic stability in Beagle dog liver microsomes assessed hepatic clearance at 1 uM measured after 60 mins by LC-MS/MS analysis; format: ADME, Canis lupus familiaris, Microsome; details: 1 h
LNCaP [13] = experiment: Induction of apoptosis in human LNCaP cells assessed as late apoptotic cells at 1.25 uM incubated for 72 hrs by annexin V/PI double staining based flow cytometry method (reference value: 2.75 %); format: functional
[14] = AUC (0 to infinity) in overnight fasted ICR mouse at 10 mg/kg, po measured upto 24 hrs by UPLC-MS/MS analysis; format: ADME, organism-based; parameters: dose 10 mg/kg, time < 24 hrs, route po; details: in vivo
[15] = AUC (0 to t) in crab-eating monkey at 6 mg/kg, ig by UPLC-MS/MS analysis; format: ADME, organism-based, Macaca fascicularis; parameters: dose 6 mg/kg, route ig; details: cynomolgus monkey, in vivo, po
[16] = biological target: Protein kinase C theta type (Homo sapiens) (UniProt Q04759); experiment: Inhibition of PKCtheta (unknown origin) at 1 uM in presence of ATP at Km concentration by mobility shift assay relative to control
Chain of Protein kinase C theta type (Homo sapiens) (Q04759 whole entry, looked up): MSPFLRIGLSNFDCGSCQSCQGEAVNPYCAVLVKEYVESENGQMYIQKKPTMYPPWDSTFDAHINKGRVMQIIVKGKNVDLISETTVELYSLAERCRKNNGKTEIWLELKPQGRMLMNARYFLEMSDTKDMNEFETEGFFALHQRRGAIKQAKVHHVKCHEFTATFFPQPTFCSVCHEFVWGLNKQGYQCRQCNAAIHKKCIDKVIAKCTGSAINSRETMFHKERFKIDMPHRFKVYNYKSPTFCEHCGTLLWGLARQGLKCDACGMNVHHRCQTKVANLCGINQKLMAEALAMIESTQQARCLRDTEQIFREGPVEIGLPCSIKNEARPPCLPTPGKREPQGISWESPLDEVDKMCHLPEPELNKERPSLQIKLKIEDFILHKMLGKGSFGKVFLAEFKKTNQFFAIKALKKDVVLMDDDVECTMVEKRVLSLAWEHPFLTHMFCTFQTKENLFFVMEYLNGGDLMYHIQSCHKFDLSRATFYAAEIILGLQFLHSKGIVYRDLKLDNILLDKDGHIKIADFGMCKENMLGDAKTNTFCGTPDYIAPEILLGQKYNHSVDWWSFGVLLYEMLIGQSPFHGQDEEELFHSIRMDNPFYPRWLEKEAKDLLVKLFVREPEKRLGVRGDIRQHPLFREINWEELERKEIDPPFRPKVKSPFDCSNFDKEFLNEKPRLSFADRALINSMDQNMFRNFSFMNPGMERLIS

[17] = AUC (0 to t) in NCG mouse xenografted with human LNCaP cells at 50 mg/kg administered daily once for 18 to 21 days and measured upto 10 hrs post last dose by LC-MS/MS analysis; format: ADME, organism-based; parameters: dose 50 mg/kg, time 18-21 day; details: in vivo
[18] = Metabolic stability in Sprague-Dawley rat liver microsomes assessed hepatic clearance at 1 uM measured after 60 mins by LC-MS/MS analysis; format: ADME, Microsome; details: 1 h
[19] = AUC (0 to infinity) in Sprague-Dawley rat at 5 mg/kg, iv measured upto 24 hrs by UPLC-MS/MS analysis; format: ADME, organism-based; parameters: dose 5 mg/kg, time < 24 hrs, route iv; details: in vivo
[20] = Apparent volume of distribution at steady state in Sprague-Dawley rat at 5 mg/kg, iv measured upto 24 hrs by UPLC-MS/MS analysis; format: ADME, organism-based; details: in vivo, read-out: Vdss(app)
LNCaP [21] = experiment: Induction of cell cycle arrest in human LNCap cells assessed as decrease in accumulation at G2/M phase at 0.04 to 1 uM incubated for 24 hrs by flow cytometry; format: functional, cell-based; details: dose 0.04-1 µM
[22] = Half life in crab-eating monkey at 6 mg/kg, ig by UPLC-MS/MS analysis; format: ADME, organism-based, Macaca fascicularis; details: cynomolgus monkey, in vivo, po
[23] = AUC (0 to t) in NCG mouse xenografted with human LNCaP cells at 12.5 mg/kg administered daily once for 18 to 21 days and measured upto 10 hrs post last dose by LC-MS/MS analysis; format: ADME, organism-based; details: in vivo
Cytochrome P450 2D6 = Cytochrome P450 2D6 (Homo sapiens, UniProt P10635); experiment: Inhibition of CYP2D6 in human liver microsomes at 0.01 to 30 uM using dextromethorphan as substrate in presence of NADPH by UPLC-MS/MS analysis; format: ADME, Microsome
Chain of Cytochrome P450 2D6 (P10635 whole entry): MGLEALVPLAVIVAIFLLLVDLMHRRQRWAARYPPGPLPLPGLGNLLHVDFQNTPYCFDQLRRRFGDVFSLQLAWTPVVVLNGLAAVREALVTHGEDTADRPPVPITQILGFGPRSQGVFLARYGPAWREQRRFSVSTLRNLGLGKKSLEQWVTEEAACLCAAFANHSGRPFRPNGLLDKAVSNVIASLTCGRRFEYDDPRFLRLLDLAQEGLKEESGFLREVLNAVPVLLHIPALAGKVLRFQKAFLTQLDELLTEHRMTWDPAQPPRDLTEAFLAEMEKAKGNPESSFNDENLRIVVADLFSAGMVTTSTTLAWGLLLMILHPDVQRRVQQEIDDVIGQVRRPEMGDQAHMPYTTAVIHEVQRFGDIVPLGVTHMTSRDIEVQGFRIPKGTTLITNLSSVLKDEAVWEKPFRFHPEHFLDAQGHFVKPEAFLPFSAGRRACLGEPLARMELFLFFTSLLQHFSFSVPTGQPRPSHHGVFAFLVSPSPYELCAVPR

[24] = Half life in crab-eating monkey at 3 mg/kg, iv measured upto 24 hrs by UPLC-MS/MS analysis; format: ADME, organism-based, Macaca fascicularis; details: cynomolgus monkey, in vivo
[25] = Metabolic stability in CD-1 mouse liver microsomes assessed as parent compound remaining at 1 uM measured after 60 mins by UPLC-MS/MS analysis; format: ADME, Microsome; details: read-out: Stability
[26] = Cmax in crab-eating monkey at 3 mg/kg, iv measured upto 24 hrs by UPLC-MS/MS analysis; format: ADME, organism-based, Macaca fascicularis; parameters: dose 3 mg/kg, time < 24 hrs, route iv; details: cynomolgus monkey, in vivo
[27] = Metabolic stability in Crab eating monkey liver microsomes assessed as intrinsic clearance at 1 uM measured after 60 mins by LC-MS/MS analysis; format: ADME, Macaca fascicularis, Microsome; details: cynomolgus monkey, 1 h
[28] = Metabolic stability in CD-1 mouse liver microsomes assessed as half life at 1 uM measured after 60 mins by LC-MS/MS analysis; format: ADME, Microsome
[29] = biological target: Protein kinase C eta type (Homo sapiens) (UniProt P24723); experiment: Inhibition of PKCeta (unknown origin) at 1 uM in presence of ATP at Km concentration by mobility shift assay relative to control
Chain of Protein kinase C eta type (Homo sapiens) (P24723 whole entry): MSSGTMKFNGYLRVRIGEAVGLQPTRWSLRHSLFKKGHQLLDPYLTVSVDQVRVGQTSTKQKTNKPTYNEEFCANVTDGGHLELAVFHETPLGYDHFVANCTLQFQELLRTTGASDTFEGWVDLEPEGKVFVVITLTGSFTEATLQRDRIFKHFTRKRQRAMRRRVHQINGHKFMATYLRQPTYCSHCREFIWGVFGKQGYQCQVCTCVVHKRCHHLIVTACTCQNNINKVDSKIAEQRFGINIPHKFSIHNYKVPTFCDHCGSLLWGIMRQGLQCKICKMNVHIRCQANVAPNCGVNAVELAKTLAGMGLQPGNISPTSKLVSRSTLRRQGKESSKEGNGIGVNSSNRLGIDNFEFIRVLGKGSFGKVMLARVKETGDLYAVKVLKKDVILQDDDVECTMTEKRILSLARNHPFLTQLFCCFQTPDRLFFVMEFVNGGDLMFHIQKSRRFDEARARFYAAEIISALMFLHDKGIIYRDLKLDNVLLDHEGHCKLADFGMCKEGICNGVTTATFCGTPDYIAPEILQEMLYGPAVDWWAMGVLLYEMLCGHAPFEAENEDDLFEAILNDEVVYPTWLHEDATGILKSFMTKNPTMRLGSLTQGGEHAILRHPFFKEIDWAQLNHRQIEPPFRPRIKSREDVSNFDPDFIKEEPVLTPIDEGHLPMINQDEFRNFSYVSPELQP

In the case of `CC(C)NC[C@@H](C(=O)N1CCN(c2ncnc3c2[C@H](C)CC(=O)N3)[C@H]2C[C@H]21)c1ccc(Cl)cc1`, the pIC50 (Cytochrome P450 3A4) was 4.82, the bioavailability [1] was 110% and the pIC50 (Cytochrome P450 2C9) was < 4.30. For the same compound, the Activity (LNCaP [2]; dose 0.62 µM) was 9.01%, the Activity (LNCaP [2]; dose 2.5 µM) was 16.43% and the Activity (LNCaP [3]) was “Active”. The Cmax [4] was 963 ng/mL, the bioavailability [5] was 41.2% and the Activity (LNCaP [6]) was 12.6%. For the same compound, the inhibition in vivo at 50 mg/kg (LNCaP [7]) was 95.5%, the remaining at 1 h, 1 µM [8] was 88.8% and the CLH [9] was 8.96 mL/min/kg. The Activity (LNCaP [10]) was 82.42%, the AUC(0-t) [11] was 13500 ng·h/mL and the CLH [12] was 0.0169 mL/min/kg. For the same compound, the Activity (LNCaP [13]) was 12.65%, the AUC(0-inf) [14] was 2170 ng·h/mL and the AUC(0-t) [15] was 1480 ng·h/mL. The inhibition [16] was 90%, the AUC(0-t) [17] was 22000 ng·h/mL and the CLH [18] was < 12.2 mL/min/kg. The AUC(0-inf) [19] was 1800 ng·h/mL, the Vd [20] was 7.76 L/kg and the Activity (LNCaP [21]) was “Active”. For the same compound, the half-life [22] was 6.16 h, the AUC(0-t) [23] was 7030 ng·h/mL and the pIC50 (Cytochrome P450 2D6) was 4.69. It also gave a half-life [24] of 7.73 h, a remaining at 1 h, 1 µM [25] of 92.3% and a Cmax [26] of 702 ng/mL. The CLH [27] was 0.049 mL/min/kg, the half-life at 1 µM [28] was > 6.45 h and the inhibition [29] was 90%.
